9 compounds from ChEMBL document CHEMBL1201862, “PubChem BioAssay data set” (2004) can be followed below.

Each structure is given as a SMILES string. Activity calls are given as the source filed them. Where only a bound is given, the exact number is not on record here.

The nature of assay [1]: control 3'UTR Renilla luciferase suppression, dose response, counter-screen for Shn3 inhibitor project, cell-based, Clone20-Shn3RL, cherry-picked (AID 624133). It counts as functional. On the technique in general: The purpose of a counterscreen is to sort out artefacts and off-target activity.
Assay [2] can be described thus: HepG2 cell cytotoxicity, dose response, cytotoxicity control for Shn3 inhibitor project, CellTiter-Glo, cherry-picked (AID 624134). The assay is classed as functional, cell-based. In general terms: In ATP-based viability assays light output follows the ATP content of the culture.
Assay [3] in a line: reduction of Shn3 3'UTR firefly luciferase signal, dose response, Schnurri-3 inhibitor project, cell-based, Clone20 osteoblasts, cherry-pick, set 2 (AID 720490).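 Also: actives lower the luminescence signal as inhibitors.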 The assay is classed as functional.
A short description of assay [4]: Shn3 3'UTR reporter inhibitors, dose response, cell-based, Clone20 osteoblasts, firefly luciferase, cherry-picked (AID 624132).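 Also: firefly luciferase luminescence from reporter carrying the Shn3 3'UTR in osteoblasts.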 The assay is classed as functional.
The target of another assay is T1, Cytochrome P450 1A2 (Homo sapiens, UniProt P05177).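 Also: PubChem cytochrome P450 panel assay, CYP1A2 panel member.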
T1 sequence (P05177 whole entry): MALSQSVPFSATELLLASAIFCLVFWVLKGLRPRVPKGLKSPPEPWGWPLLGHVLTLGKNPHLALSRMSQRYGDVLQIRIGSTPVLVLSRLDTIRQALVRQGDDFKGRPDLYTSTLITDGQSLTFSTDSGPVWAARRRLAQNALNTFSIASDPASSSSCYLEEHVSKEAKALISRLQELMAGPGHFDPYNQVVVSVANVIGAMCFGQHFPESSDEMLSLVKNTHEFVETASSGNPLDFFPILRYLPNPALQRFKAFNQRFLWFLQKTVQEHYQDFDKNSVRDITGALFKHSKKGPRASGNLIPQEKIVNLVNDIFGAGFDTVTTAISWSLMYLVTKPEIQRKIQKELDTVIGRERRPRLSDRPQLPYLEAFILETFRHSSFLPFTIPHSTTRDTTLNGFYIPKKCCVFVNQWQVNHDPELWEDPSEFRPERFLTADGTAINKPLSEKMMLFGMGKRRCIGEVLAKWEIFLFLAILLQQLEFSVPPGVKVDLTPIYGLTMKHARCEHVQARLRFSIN

In another assay the target is fMet-Leu-Phe receptor (Homo sapiens, UniProt P21462). As to the kind of experiment: FPR ligands, dose response (AID 519). The assay is classed as functional.
Assay [5] is described as follows: LGR2 antagonists, dose response, cell-based, HEK293, CRE-luciferase reporter, cherry pick, set 2 (AID 743343).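 Also: transfected cells were stimulated with diluted bursicon conditioned medium after compound addition.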 The assay is classed as functional.
The subject of assay [6] is BJ. The assay is described as follows: cytotoxicity toward BJ-TERT-LT-ST fibroblasts, dose response, cell-based, RAS-independent, luminescence (AID 1935).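 Also: BJ fibroblasts immortalized with TERT plus LT and ST oncogenes.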 The assay is classed as functional. The following applies: Homo sapiens.
For assay [7], the target named is Luciferin 4-monooxygenase (Photinus pyralis, UniProt P08659). As to the kind of experiment: firefly luciferase enzyme inhibitors, dose response, biochemical, luminescence (AID 1891).
Assay [8] in a line: inhibitors of clade B AD8 Env fusion, dose response, cell-based, cherry-pick (AID 652062).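 Also: luciferase signal from cell-cell fusion driven by HIV-1 clade B AD8 Env; potency is for inhibitors of fusion seen as a drop in luminescence.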 The assay is classed as functional.
Assay [9] in a line: cytotoxicity toward DRD oncogenic fibroblasts, dose response, cell-based, non-viral oncogenic, luminescence (AID 1934). The assay is classed as functional. The following applies: Homo sapiens.
Assay [10] is described as follows: cytotoxicity in HEK-293T cells, dose response, cytotoxicity control for TCR NF-kB inhibitor project, luminescence, T-cell screen hits (AID 489026).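 Also: cells exposed to compound about 14 hours before the viability readout.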 The assay is classed as functional, cell-based.
In assay [11] the test system is BJ. The assay is described as follows: cytotoxicity toward BJ-TERT fibroblasts, dose response, cell-based, RAS-independent, luminescence (AID 1933). The assay is classed as functional. To be noted: Homo sapiens.
The nature of assay [12]: MC4R antagonists, dose response, counter-screen for LGR2 antagonist project, cell-based, plate reader, cherry pick (AID 743444).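 Also: transfected HEK 293 cells stimulated with alpha-MSH peptide; potency of inhibitors of the alpha-MSH evoked signal.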 The assay is classed as functional.
The nature of assay [13]: A549 cell cytotoxicity, dose response, cytotoxicity control, plate reader, cherry-pick, antagonist series (AID 743412). It counts as functional, cell-based.
Assay [14] in a line: HepG2 cell cytotoxicity, dose response, cytotoxicity control, plate reader, cherry-pick, antagonist series (AID 743416). The assay is classed as functional, cell-based.
Assay [15] relates to BJ. As to the kind of experiment: cells. The assay is classed as functional, cell-based. To be noted: Homo sapiens.
The nature of assay [16]: Luminescence Cell-Based Dose Confirmation HTS to Identify Inhibitors of Platelet Dense Granule Release. [Related pubchem assays: 1663 (Primary HTS), 1678 (Summary of Project)]. The assay is classed as functional.
A short description of assay [17]: inhibitors of HIV Env-driven cell fusion, dose response, cherry-pick (AID 652057). It counts as functional, cell-based.
Assay [18] in a line: non-specific cell cytotoxicity, dose response, cytotoxicity control for PAX8 inhibitor project, plate reader, dry powder samples (AID 743021). The assay is classed as functional, cell-based.
Assay [19] can be described thus: ZM109 Env clade C HIV-1 fusion inhibitors, dose response, HeLa effector, CEM target cells, luciferase, cherry-pick (AID 652058). The assay is classed as functional, cell-based.
In the next assay the target is Paired box protein Pax-8 (Homo sapiens, UniProt Q06710). The assay is described as follows: inhibitors of PAX8-driven TPO luciferase reporter, dose response, RMG-I cells, cherry-pick (AID 687027).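 Also: luciferase reporter driven by Pax8 target thyroperoxidase promoter measured by SteadyGlo luminescence.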 The assay is classed as functional, cell-based.
Assay [20] can be described thus: HEK293 cell cytotoxicity, dose response, cytotoxicity control, plate reader, cherry-picked samples (AID 743446). The assay is classed as functional, cell-based.
A short description of assay [21]: CEM21 lymphoblast cell cytotoxicity, dose response, cytotoxicity control for viral fusion inhibitor project, CellTiter-Glo luminescence, cherry-picked (AID 652042).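 Also: potency for signal decrease meaning cytotoxicity.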 It counts as functional, cell-based.
Assay [22] can be described thus: off-target signal loss in HeLa-CEM21 co-culture – HeLa F-luc CTL cells, cherry-picked, counter-screen for HIV-1 Env fusion inhibitor project, dose response (AID 652040).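 Also: potency for signal decrease marking cytotoxic or nonspecific inhibition.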 It counts as functional, cell-based.
Assay [23] addresses Endoplasmic reticulum aminopeptidase 1 (Homo sapiens, UniProt Q9NZ08). As to the kind of experiment: ERAP1 aminopeptidase inhibitors, dose response, biochemical, cherry-pick, set 2, plate reader (AID 743314).
Assay [24] addresses Tyrosyl-DNA phosphodiesterase 2 (Homo sapiens, UniProt O95551). The assay is described as follows: human TDP2 enzyme inhibitors, dose response, biochemical, epi absorbance, IC50 (AID 743297).
For another assay, the system named is Vero. The assay is described as follows: Vero cell cytotoxicity, cytotoxicity control for flavivirus capping enzyme inhibitors (AID 588742). It counts as functional. The following applies: Chlorocebus sabaeus.
The target in assay [25] is T2, Histone-lysine N-methyltransferase NSD2 (Homo sapiens, UniProt O96028).
T2 sequence (O96028 whole entry): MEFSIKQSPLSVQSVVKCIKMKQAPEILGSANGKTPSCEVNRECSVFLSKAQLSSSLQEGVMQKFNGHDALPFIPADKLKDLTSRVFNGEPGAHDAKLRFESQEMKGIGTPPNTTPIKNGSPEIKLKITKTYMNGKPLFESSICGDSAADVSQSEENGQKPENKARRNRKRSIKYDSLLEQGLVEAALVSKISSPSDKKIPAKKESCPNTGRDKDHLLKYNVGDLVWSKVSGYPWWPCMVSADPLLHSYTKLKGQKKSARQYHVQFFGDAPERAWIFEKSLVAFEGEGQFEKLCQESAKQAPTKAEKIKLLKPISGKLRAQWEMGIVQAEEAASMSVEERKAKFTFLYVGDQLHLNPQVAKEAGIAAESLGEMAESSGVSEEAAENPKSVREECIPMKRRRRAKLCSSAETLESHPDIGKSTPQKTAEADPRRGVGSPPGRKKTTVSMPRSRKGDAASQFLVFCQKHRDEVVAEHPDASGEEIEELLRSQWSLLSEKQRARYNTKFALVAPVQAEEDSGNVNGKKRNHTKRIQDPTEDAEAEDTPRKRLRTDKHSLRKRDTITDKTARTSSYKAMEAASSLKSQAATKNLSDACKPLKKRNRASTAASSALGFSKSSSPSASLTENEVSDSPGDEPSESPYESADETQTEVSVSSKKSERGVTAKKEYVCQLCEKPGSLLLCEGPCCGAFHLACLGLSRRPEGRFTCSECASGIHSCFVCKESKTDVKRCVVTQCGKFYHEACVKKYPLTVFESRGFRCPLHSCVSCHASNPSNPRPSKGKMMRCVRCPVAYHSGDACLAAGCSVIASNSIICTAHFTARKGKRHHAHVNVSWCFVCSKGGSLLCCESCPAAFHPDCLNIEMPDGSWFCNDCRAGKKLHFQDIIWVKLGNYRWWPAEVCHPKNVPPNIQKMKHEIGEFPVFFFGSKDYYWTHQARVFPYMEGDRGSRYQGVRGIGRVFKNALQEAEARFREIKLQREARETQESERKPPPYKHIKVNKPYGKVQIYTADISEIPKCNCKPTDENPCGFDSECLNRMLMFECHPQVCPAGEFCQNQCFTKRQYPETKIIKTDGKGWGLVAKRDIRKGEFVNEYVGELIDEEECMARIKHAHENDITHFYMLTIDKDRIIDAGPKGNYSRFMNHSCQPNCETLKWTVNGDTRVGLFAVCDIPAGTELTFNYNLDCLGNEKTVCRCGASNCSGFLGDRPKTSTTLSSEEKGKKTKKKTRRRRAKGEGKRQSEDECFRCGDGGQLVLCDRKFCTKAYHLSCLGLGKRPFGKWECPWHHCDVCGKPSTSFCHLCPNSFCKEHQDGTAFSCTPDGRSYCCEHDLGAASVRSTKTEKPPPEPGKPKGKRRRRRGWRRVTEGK
The assay is classed as biochemical.

Assay [26] can be described thus: YAP1 pathway inhibition via CTGF transcript levels, dose response, cell-based, DLD1 colon cancer, RT-qPCR, cherry-pick (AID 1053122). To be noted: Cancer cell lines. It counts as functional. (In qPCR the cycle at which signal appears reflects the starting amount.)
The nature of assay [27]: Mycobacterium tuberculosis BioA enzyme inhibitor Measured in Biochemical System Using Plate Reader - 2163-02_Inhibitor_Dose_DryPowder_Activity.
Assay [28] can be described thus: A Cell-Based Confirmatory Screen for Compounds that Inhibit VEEV, TC-83 (8). It counts as functional.
A short description of assay [29]: HeLa cell cytotoxicity, dose response, cytotoxicity control, 24 h, plate reader, dry powder (AID 686928). The assay is classed as functional, cell-based.

What is called AC50 is the concentration giving half of the maximal activity seen. As usually defined, the Ki is a measure of affinity in units of concentration, obtained from inhibition or displacement. As usually defined, the EC50 is the concentration needed to bring the measured effect to its halfway point. The term IC50 denotes the midpoint of a concentration-inhibition curve. A word on the CC50: it is the concentration at which the toxic effect on the cells reaches its halfway point.

Paired box protein Pax-8, sequence (Q06710 whole entry): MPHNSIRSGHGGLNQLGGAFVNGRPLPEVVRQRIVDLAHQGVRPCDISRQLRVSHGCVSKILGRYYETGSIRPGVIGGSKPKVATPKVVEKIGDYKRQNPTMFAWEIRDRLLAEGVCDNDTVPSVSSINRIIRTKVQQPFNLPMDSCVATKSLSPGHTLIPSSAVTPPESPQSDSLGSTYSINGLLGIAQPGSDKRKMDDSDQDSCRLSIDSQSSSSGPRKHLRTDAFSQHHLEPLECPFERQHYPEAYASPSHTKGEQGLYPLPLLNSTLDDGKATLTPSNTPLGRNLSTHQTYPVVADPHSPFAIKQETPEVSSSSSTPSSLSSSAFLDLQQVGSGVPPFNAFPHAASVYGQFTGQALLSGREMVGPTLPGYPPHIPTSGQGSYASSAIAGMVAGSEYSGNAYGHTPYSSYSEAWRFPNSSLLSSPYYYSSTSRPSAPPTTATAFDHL
Luciferin 4-monooxygenase, sequence (P08659 whole entry, the tested form may be a part): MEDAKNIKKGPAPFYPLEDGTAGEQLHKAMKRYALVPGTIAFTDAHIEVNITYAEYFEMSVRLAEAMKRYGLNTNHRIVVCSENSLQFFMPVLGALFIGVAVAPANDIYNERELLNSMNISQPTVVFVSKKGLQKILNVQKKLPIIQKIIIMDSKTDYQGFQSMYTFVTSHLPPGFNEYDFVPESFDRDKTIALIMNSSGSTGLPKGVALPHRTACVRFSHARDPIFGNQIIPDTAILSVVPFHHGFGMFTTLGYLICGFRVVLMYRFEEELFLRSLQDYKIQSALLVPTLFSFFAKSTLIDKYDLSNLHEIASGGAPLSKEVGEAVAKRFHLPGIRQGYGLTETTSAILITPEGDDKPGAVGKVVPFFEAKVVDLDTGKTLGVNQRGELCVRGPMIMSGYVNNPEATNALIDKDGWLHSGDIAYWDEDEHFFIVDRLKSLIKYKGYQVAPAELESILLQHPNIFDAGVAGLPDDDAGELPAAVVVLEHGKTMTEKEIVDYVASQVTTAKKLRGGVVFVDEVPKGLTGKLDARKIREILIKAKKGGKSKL
Tyrosyl-DNA phosphodiesterase 2, sequence (O95551 whole entry): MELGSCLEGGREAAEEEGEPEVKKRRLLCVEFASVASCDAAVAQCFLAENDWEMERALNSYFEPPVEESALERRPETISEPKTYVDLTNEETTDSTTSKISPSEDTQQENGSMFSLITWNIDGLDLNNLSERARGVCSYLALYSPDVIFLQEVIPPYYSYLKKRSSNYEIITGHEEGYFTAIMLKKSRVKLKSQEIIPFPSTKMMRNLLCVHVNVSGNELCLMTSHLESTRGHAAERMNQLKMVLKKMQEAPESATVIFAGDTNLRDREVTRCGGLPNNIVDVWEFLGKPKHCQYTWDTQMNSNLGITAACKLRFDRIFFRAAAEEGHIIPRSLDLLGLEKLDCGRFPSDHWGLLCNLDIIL
fMet-Leu-Phe receptor, sequence (P21462 whole entry): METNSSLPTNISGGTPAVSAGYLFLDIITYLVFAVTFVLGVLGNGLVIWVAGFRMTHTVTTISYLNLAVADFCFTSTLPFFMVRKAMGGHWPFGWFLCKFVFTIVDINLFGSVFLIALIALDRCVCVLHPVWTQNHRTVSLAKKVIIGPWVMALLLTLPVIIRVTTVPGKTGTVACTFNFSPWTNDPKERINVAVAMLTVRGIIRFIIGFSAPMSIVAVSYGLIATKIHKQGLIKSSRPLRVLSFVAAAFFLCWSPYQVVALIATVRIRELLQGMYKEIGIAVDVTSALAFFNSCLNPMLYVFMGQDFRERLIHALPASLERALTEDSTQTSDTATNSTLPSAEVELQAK
Endoplasmic reticulum aminopeptidase 1, sequence (Q9NZ08 whole entry): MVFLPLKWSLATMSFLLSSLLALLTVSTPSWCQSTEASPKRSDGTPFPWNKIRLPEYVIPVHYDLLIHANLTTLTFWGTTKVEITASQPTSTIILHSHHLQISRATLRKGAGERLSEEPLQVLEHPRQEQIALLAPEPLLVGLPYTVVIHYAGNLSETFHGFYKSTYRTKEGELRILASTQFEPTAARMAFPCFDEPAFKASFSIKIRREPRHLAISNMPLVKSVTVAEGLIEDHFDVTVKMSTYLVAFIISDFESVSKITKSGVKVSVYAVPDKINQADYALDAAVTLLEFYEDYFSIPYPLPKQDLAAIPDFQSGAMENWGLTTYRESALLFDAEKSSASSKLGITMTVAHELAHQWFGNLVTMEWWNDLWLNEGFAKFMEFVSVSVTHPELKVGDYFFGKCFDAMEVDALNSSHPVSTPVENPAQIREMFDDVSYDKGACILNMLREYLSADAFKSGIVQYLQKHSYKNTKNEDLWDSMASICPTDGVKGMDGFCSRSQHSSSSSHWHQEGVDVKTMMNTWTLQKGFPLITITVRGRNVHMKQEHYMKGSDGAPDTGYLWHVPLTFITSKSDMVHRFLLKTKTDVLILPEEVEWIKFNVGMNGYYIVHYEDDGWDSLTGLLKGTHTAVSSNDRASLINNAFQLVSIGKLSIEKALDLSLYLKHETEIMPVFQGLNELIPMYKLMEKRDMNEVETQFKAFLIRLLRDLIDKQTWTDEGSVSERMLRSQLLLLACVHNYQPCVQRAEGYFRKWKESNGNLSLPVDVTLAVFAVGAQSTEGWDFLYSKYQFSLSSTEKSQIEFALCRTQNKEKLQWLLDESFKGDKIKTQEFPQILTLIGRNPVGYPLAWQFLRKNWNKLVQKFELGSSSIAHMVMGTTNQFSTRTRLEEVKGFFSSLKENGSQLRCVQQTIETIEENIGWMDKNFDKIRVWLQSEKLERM

For the compound `Cn1c(=O)c2c(nc(NCc3ccco3)n2CCc2ccccc2)n(C)c1=O`, the AC50 is 18.3 µM (active) in assay [1], 50.9 µM (active) in assay [2], 2.27 µM (active) in assay [3] and 2.34 µM (active) in [4].

With `Cc1nn2c(O)c(C#N)c(-c3ccccc3)nc2c1-c1ccccc1`, the AC50 on Cytochrome P450 1A2 was 20 µM (inconclusive). Further, the Ki at fMet-Leu-Phe receptor was > 66.7 µM (inactive).

As to `COc1ccccc1C(=O)Nc1nc2ccccc2s1`, the AC50 in assay [5] was 0.121 µM (active); in assay [8] it was 2.44 µM (active); in assay [12], 0.172 µM (active); in [13] it was 3.04 µM (active); in [14] it was 3.64 µM (active); in assay [17] it was 2.05 µM (active). In addition, the AC50 is 10.5 µM (active) in assay [18]; 10.9 µM (active) in assay [19]; 3.69 µM (active) on Paired box protein Pax-8; 3.61 µM (active) in [20]; 13.7 µM (active) in assay [21]; 2.59 µM (active) in assay [22]. Besides, the EC50 in the assay with BJ [6] was 15.8 µM (active); in [7], 0.296 µM (active); in assay [9], 5.93 µM (active); in the assay on BJ [11] it was 8.4 µM (active); in the assay on BJ [15], 5.6 µM (active); in assay [16], 3.96 µM (active). The IC50 in assay [10] is > 80 µM (inactive).

In the case of `Cc1cc(=O)oc2c(CN3CCN(CCO)CC3)c(O)ccc12`, in [23], the AC50 is 9.03 µM (active).

As to `O=C1C=C(Nc2cccnc2)c2ccccc2C1=O`, the IC50 in assay [24] is 4.03 µM (active). The CC50 in the assay with Vero was 12.1 µM (active). Also, the AC50 in assay [25] is 3.7 µM (active).

On to `O=C(c1cccc(F)c1)N1CCCCN2[C@@H](CO)[C@H](c3ccc(C#CC4(O)CCCC4)cc3)[C@@H]2C1`, for which the AC50 in [26] was 1.16 µM (active).

In the case of `O=C(Nc1cccc(Cl)c1)N1CCN(c2ccccc2)CC1`, the AC50 in assay [27] is 11 µM (active).

`CNCCCN(C)Cc1nc2ccc([N+](=O)[O-])cc2c(=O)n1-c1ccccc1`: the IC50 in assay [28] was < 0.5 µM (active).

`COc1ccc(-n2cnc(=O)c3ccccc32)cc1Cl`: the AC50 in [29] was > 160 µM (inactive).
